Reference: ChEMBL document CHEMBL4033700, “From a novel HTS hit to potent, selective, and orally bioavailable KDM5 inhibitors” (Bioorg Med Chem Lett, 2017)
pIC50: −log10 of the molar value.

How the values were obtained:
[1] = biological target: T1, Lysine-specific demethylase 2B (Homo sapiens, UniProt Q8NHM5); test: Inhibition of recombinant human N-terminal FLAG-tagged KDM2B expressed in baculovirus infected Sf9 insect cells using H3K36me2 peptide as substrate after 30 to 45 mins by TR-FRET assay
T1 sequence (Q8NHM5 whole entry): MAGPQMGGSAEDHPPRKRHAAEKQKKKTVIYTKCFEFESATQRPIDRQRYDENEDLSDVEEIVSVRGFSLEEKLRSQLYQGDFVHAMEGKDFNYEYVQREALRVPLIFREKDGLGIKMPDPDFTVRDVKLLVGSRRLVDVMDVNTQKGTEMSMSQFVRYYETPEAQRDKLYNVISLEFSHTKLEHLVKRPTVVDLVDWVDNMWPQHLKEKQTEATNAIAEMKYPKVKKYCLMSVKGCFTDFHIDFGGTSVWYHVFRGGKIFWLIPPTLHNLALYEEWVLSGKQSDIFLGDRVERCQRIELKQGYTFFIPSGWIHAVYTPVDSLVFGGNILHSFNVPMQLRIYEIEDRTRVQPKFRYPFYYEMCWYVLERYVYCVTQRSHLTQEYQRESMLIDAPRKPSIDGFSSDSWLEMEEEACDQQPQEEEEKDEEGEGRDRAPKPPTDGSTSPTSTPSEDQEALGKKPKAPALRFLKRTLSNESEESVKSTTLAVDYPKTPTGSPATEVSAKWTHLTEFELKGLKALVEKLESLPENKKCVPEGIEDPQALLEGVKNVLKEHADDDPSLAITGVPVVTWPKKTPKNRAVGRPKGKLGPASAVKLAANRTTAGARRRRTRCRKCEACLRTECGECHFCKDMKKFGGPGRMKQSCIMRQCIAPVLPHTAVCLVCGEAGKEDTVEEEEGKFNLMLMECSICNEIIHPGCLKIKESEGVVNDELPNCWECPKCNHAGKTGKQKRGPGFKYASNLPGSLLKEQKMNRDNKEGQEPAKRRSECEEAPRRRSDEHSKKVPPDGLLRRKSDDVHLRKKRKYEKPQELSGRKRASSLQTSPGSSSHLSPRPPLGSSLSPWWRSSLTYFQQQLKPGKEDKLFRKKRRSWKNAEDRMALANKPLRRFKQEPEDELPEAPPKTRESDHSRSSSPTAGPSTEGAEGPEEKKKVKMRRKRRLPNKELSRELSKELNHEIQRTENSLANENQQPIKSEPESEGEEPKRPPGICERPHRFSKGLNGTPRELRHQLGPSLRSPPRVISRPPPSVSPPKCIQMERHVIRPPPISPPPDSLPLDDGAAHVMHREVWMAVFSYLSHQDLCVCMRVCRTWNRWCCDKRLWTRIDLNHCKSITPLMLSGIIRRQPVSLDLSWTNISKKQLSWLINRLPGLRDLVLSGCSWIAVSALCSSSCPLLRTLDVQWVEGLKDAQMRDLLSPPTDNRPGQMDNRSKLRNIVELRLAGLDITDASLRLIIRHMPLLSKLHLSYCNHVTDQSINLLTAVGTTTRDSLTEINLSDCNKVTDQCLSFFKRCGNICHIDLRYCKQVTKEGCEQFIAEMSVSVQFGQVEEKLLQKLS

[2] = biological target: Lysine-specific demethylase 3B (Homo sapiens, UniProt Q7LBC6); test: Inhibition of recombinant human N-terminal FLAG-tagged KDM3B expressed in baculovirus infected Sf9 insect cells using H3K9me1 peptide as substrate after 30 to 45 mins by TR-FRET assay
Chain of Lysine-specific demethylase 3B (Q7LBC6 whole entry): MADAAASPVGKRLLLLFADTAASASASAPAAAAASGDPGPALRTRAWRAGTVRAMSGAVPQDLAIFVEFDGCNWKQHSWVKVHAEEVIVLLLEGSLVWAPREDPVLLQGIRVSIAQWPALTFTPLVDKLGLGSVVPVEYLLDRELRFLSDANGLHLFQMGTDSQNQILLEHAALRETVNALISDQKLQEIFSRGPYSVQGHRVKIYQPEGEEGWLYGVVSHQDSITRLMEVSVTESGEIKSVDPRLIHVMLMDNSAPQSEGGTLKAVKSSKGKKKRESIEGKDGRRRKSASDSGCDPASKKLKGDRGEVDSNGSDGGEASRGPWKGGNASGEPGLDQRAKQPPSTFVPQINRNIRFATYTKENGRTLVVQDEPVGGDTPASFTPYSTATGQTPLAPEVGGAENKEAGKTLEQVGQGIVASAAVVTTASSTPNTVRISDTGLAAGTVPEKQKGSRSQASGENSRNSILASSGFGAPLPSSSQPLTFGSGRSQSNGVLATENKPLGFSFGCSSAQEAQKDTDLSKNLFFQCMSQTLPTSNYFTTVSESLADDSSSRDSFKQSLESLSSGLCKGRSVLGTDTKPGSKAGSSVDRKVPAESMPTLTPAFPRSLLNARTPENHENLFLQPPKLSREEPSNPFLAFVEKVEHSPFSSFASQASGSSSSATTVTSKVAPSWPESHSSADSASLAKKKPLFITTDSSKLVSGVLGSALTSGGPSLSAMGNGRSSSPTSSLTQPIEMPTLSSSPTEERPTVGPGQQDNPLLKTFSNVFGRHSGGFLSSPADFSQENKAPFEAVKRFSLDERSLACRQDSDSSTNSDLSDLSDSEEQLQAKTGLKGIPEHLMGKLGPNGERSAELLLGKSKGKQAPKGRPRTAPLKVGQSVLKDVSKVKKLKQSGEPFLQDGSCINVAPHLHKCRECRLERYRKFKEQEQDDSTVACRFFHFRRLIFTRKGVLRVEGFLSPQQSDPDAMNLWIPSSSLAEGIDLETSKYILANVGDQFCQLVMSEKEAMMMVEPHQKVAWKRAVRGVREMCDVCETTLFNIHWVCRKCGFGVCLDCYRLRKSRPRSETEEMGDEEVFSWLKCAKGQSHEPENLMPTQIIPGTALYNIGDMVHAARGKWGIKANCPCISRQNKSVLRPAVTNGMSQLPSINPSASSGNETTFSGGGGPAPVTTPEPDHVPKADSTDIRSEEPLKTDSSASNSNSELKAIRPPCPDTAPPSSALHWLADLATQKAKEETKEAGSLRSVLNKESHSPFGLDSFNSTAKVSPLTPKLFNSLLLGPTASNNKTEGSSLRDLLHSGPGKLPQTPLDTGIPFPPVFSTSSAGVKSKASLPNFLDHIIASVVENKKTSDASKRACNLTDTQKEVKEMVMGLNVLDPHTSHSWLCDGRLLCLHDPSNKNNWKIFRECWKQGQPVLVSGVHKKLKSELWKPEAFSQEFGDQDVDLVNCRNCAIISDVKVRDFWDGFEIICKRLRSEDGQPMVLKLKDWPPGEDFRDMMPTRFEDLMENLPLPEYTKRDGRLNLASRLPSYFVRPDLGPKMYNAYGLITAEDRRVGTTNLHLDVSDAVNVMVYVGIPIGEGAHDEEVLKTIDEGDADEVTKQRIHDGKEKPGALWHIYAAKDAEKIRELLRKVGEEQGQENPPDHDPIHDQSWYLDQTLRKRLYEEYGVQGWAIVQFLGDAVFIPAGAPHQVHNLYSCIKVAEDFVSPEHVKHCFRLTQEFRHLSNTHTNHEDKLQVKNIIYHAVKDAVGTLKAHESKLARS

[3] = Hepatic clearance in mouse hepatocytes; format: ADME, cell-based, Hepatocyte

`CC(C)c1cc(C(=O)N2CC[C@@H](NC(=O)C3CC3)C2)[nH]n1` gave a pIC50 [1] of under 4.60, a pIC50 [2] of under 4.60 and a CLhep predicted [3] of 0.6 mL/min/kg.
